# Measured values taken from PubChem BioAssay AID2060335 (Molecular Pharmacology Branch, DTP, NCI, 2025).
# Where “and” joins values, the source holds several entries; their conditions need not be identical. Equal entries are not always repeated.
# Test system: DU-145 multicell spheroids with HUVEC/MSC, viability
# Assay: Anticancer human tumor DU-145 cell line growth inhibition [IpAb];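 note: spheroids exposed to agents for seven days before measurement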;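 for viability, T/C: percent of DMSO vehicle control viability so 100% = untreated level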
# Details: for viability, T/C: stronger effect = lower value
# From the text: Combinatorial screen of targeted agents with ipatasertib and abemaciclib in multi-cell type tumor spheroids
# A high-throughput screen of multi-cell type tumor spheroids was designed to identify active combinations of targeted small molecules and ipatasertib or abemaciclib. Complex spheroids include a stromal component modeled by human endothelial cells (HUVEC) and fibroblasts modeled by human mesenchymal stem cells (MSCs). The concentration ranges selected for each drug and investigational agent were based upon clinically achievable concentrations if the clinical Cmax of the agent was known.
# Compounds. The drugs and investigational agents: ipatasertib (NSC767898), abemaciclib(NSC768073), selumetinib (NSC741078), trametinib (758246), adavosertib (NSC754352), everolimus (NSC733504), sapanisertib (NSC764658), vemurafenib (NSC761431), venetoclax (NSC766270), copanlisib (NSC809693), apelisib (NSC765974), palbociblib (NSC758247), vemurafenib (NSC761431), dabrafenib (NSC764134), ravoxertinib (NSC781343), BMS-387032 (NSC767048), sotorasib (NSC818433), talazoparib (NSC767125) and afursertib (NSC778305), were obtained from the National Cancer Institute (NCI) Developmental Therapeutics Program Chemical Repository. The FDA-approved anticancer drug set is available from the NCI Developmental Therapeutics Program. […] The stock solutions were prepared in dimethyl sulfoxide (DMSO, Sigma-Aldrich, St. Louis, MO, cat. D2650) at 800-fold the tested concentration and stored at -70 degrees C prior to their use. All drugs and investigational agents were tested over a range starting from a high concentration at or near the clinical Cmax and decreasing in half-log increments. If the clinical Cmax for an agent had not been determined, the highest concentration tested was 10 microM.
# NCI60 Cell Culture. NCI60 cell lines were obtained from the NCI Developmental Therapeutics Program Tumor Repository. For each lot of cells, the Repository performed Applied Biosystems AmpFLSTR Identifiler testing with PCR amplification to confirm consistency with the published Identifier STR profile for each cell line. Cells were kept in continuous culture for no more than 20 passages. The optimal seeding densities for each of the cell lines at each time point assessed were determined prior to performing the concentration response studies. Briefly, the NCI60 human tumor lines were grown as monolayers in RPMI 1640 medium supplemented with 10% FBS and 2 mmol/L L-glutamine.
# An additional 9 lines were from the NCI60 cell line panel including MDA-MB-231 breast carcinoma, MDA-MB-468 breast carcinoma, MCF7 breast carcinoma, Hs578T breast carcinoma, MALME-3M melanoma, SK-MEL-2 melanoma, SK-OV-3 ovarian carcinoma, DU-145 prostate carcinoma, PC-3 prostate carcinoma, all cell lines along with major genetic alterations are listed on Table 2. Pooled donor human umbilical vein endothelial cells (HUVEC, Lonza, cat. CC-2519) and human mesenchymal stem cells (hMSC, Lonza, cat. PT-2501) were purchased from Lonza (Walkersville, MD).
# PDMR cell lines were grown in complete medium (DC medium): Dulbecco's modified Eagle's medium (DMEM)/F12 supplemented with 5% fetal bovine serum (FBS), 2 mM L-glutamine, 100 U/mL penicillin and 100 µg/ml streptomycin, 0.4 µg/ml hydrocortisone, 10 ng/ml epidermal growth factor (EGF) recombinant human protein, 24 µg/mL adenine, and 0.1 mg/mL primocin. During culture from frozen stock vials, PDMR cells were cultured in the same medium containing 10 µM Y-27632 (see Table 3). The PDCs were cultured in complete DMEM/F12 media without 10 microM Y-27632 dihydrochloride for at least two passages prior to the screen. The pooled donor HUVEC and hMSC were cultured in endothelial cell growth medium 2 (PromoCell, Heidelberg, Germany, cat. C-22011) and mesenchymal stem cell growth medium 2 (PromoCell, cat. C-28009), respectively. For all experiments, HUVEC and hMSC were used at passages </=5.
# […]
# [1] = curve of first compound, second compound 0.01 µM
# [2] = curve of first compound, second compound 0.0316 µM
# [3] = curve of first compound, second compound 0.1 µM
# [4] = curve of first compound, second compound 0.316 µM
# [5] = curve of first compound, second compound 1 µM
# [6] = second compound 0.01 µM, first compound 0.0316 µM
# [7] = second compound 0.01 µM, first compound 0.1 µM
# [8] = second compound 0.01 µM, first compound 0.316 µM
# [9] = second compound 0.01 µM, first compound 1 µM
# [10] = second compound 0.01 µM, first compound 3.16 µM
# [11] = second compound 0.01 µM, first compound 10 µM
# [12] = second compound 0.0316 µM, first compound 0.0316 µM
# [13] = second compound 0.0316 µM, first compound 0.1 µM
# [14] = second compound 0.0316 µM, first compound 0.316 µM
# [15] = second compound 0.0316 µM, first compound 1 µM
# [16] = second compound 0.0316 µM, first compound 3.16 µM
# [17] = second compound 0.0316 µM, first compound 10 µM
# [18] = second compound 0.1 µM, first compound 0.0316 µM
# [19] = second compound 0.1 µM, first compound 0.1 µM
# [20] = second compound 0.1 µM, first compound 0.316 µM
# [21] = second compound 0.1 µM, first compound 1 µM
# [22] = second compound 0.1 µM, first compound 3.16 µM
# [23] = second compound 0.1 µM, first compound 10 µM
# [24] = second compound 0.316 µM, first compound 0.0316 µM
# [25] = second compound 0.316 µM, first compound 0.1 µM
# [26] = second compound 0.316 µM, first compound 0.316 µM
# [27] = second compound 0.316 µM, first compound 1 µM
# [28] = second compound 0.316 µM, first compound 3.16 µM
# [29] = second compound 0.316 µM, first compound 10 µM
# [30] = second compound 1 µM, first compound 0.0316 µM
# [31] = second compound 1 µM, first compound 0.1 µM
# [32] = second compound 1 µM, first compound 0.316 µM
# [33] = second compound 1 µM, first compound 1 µM
# [34] = second compound 1 µM, first compound 3.16 µM
# [35] = second compound 1 µM, first compound 10 µM
# [36] = curve of first compound, second compound 3.16 µM
# [37] = curve of first compound, second compound 10 µM
# [38] = second compound 3.16 µM, first compound 0.0316 µM
# [39] = second compound 3.16 µM, first compound 0.1 µM
# [40] = second compound 3.16 µM, first compound 0.316 µM
# [41] = second compound 3.16 µM, first compound 1 µM
# [42] = second compound 3.16 µM, first compound 3.16 µM
# [43] = second compound 3.16 µM, first compound 10 µM
# [44] = second compound 10 µM, first compound 0.0316 µM
# [45] = second compound 10 µM, first compound 0.1 µM
# [46] = second compound 10 µM, first compound 0.316 µM
# [47] = second compound 10 µM, first compound 1 µM
# [48] = second compound 10 µM, first compound 3.16 µM
# [49] = second compound 10 µM, first compound 10 µM
SMILES,IC50 [3],IC50 [4],IC50 [5],"viability, T/C [18]","viability, T/C [19]","viability, T/C [20]","viability, T/C [21]","viability, T/C [22]","viability, T/C [23]","viability, T/C [24]","viability, T/C [25]","viability, T/C [26]","viability, T/C [27]","viability, T/C [28]","viability, T/C [29]","viability, T/C [30]","viability, T/C [31]","viability, T/C [32]","viability, T/C [33]","viability, T/C [34]",further results
C=CC(=O)N1CCN(c2nc(=O)n(-c3c(C)ccnc3C(C)C)c3nc(-c4c(O)cccc4F)c(F)cc23)C(C)C1 (configuration not stated) + CCN1CCN(Cc2ccc(Nc3ncc(F)c(-c4cc(F)c5nc(C)n(C(C)C)c5c4)n3)nc2)CC1,8.37 µM,9.55 µM,6.07 µM,82.8%,81%,91.5%,93.3%,78.4%,44.8%,78.8%,78.3%,82.4%,85.8%,77.3%,49%,66.1%,64.4%,65.9%,70.5%,67.5%,"IC50 [1]: 7.92 µM; IC50 [2]: 7.52 µM; viability, T/C [6]: 94.6%; viability, T/C [7]: 104%; viability, T/C [8]: 111%; viability, T/C [9]: 104%; viability, T/C [10]: 86.1%; viability, T/C [11]: 40.6%; viability, T/C [12]: 91.2%; viability, T/C [13]: 95%; viability, T/C [14]: 98.7%; viability, T/C [15]: 96.5%; viability, T/C [16]: 81.5%; viability, T/C [17]: 39.4%; viability, T/C [35]: 37.3%"
CC1(C)CCC(CN2CCN(c3ccc(C(=O)NS(=O)(=O)c4ccc(NCC5CCOCC5)c([N+](=O)[O-])c4)c(Oc4cnc5[nH]ccc5c4)c3)CC2)=C(c2ccc(Cl)cc2)C1,,,,,,,,,,,,,,,,,,,,,"viability, T/C (compound 0.0316 µM): 104%; viability, T/C (compound 0.1 µM): 103% and 109%; viability, T/C (compound 0.316 µM): 104% and 107%; viability, T/C (compound 1 µM): 96.4% and 99.4%; viability, T/C (compound 3.16 µM): 69.2% and 76%; viability, T/C (compound 10 µM): 10.1% and 10.8%; IC50 (curve of compound): 4.53 µM and 4.99 µM"
CCCS(=O)(=O)Nc1ccc(F)c(C(=O)c2c[nH]c3ncc(-c4ccc(Cl)cc4)cc23)c1F + CC(C)NCC(C(=O)N1CCN(c2ncnc3c2C(C)CC3O)CC1)c1ccc(Cl)cc1,> 10 µM,> 10 µM,< 0.0316 µM,88.2%,91.3%,86.6%,96.3%,96.7%,68.2%,53.9%,64.1%,61.4%,76.4%,66.8%,43.6%,33.1%,31.8%,37.7%,41.2%,46.3%,"IC50 [36]: < 0.0316 µM; IC50 [37]: < 0.0316 µM; viability, T/C [35]: 29.9%; viability, T/C [38]: 22.3%; viability, T/C [39]: 25.9%; viability, T/C [40]: 24.4%; viability, T/C [41]: 22.4%; viability, T/C [42]: 23.6%; viability, T/C [43]: 20.3%; viability, T/C [44]: 19.6%; viability, T/C [45]: 20.1%; viability, T/C [46]: 19.1%; viability, T/C [47]: 19.7%; viability, T/C [48]: 18.3%; viability, T/C [49]: 14.2%"
Cn1ncc(Cl)c1-c1cc(C(=O)NC(CN)Cc2cccc(F)c2)sc1Cl (configuration not stated) + CC(C)NCC(C(=O)N1CCN(c2ncnc3c2C(C)CC3O)CC1)c1ccc(Cl)cc1,0.142 µM,< 0.0316 µM,< 0.0316 µM,72.8%,56.3%,35.3%,24.7%,17%,0.42%,46.1%,41.2%,33.6%,24%,16.4%,1.33%,30%,32.6%,28%,24.2%,15.8%,"IC50 [36]: < 0.0316 µM; IC50 [37]: < 0.0316 µM; viability, T/C [35]: 0.93%; viability, T/C [38]: 22%; viability, T/C [39]: 24.4%; viability, T/C [40]: 21.7%; viability, T/C [41]: 19.6%; viability, T/C [42]: 18.7%; viability, T/C [43]: 0.86%; viability, T/C [44]: 19.4%; viability, T/C [45]: 19.7%; viability, T/C [46]: 19.7%; viability, T/C [47]: 18.5%; viability, T/C [48]: 15.8%; viability, T/C [49]: 0.27%"
CC1(C)CCC(CN2CCN(c3ccc(C(=O)NS(=O)(=O)c4ccc(NCC5CCOCC5)c([N+](=O)[O-])c4)c(Oc4cnc5[nH]ccc5c4)c3)CC2)=C(c2ccc(Cl)cc2)C1 + CCN1CCN(Cc2ccc(Nc3ncc(F)c(-c4cc(F)c5nc(C)n(C(C)C)c5c4)n3)nc2)CC1,4.19 µM,3.64 µM,3.43 µM,94.8%,102%,92%,78.9%,64.3%,13.5%,84%,88.2%,80.3%,72.5%,56.7%,10.8%,71.3%,72.8%,68.3%,69.5%,52.2%,"IC50 [1]: 4.89 µM; IC50 [2]: 4.11 µM; viability, T/C [6]: 108%; viability, T/C [7]: 104%; viability, T/C [8]: 103%; viability, T/C [9]: 99.8%; viability, T/C [10]: 70.2%; viability, T/C [11]: 16.7%; viability, T/C [12]: 95.8%; viability, T/C [13]: 101%; viability, T/C [14]: 97%; viability, T/C [15]: 90.4%; viability, T/C [16]: 61.5%; viability, T/C [17]: 11.1%; viability, T/C [35]: 12.3%"
